The source of these data is article PMC5079829 (Bioorganic & medicinal chemistry, 2016).

In assay [1] the test system is H9/HIV-1IIIB. The settings on record: previously reported; cited from earlier work.
Assay [2] has as its system HIV-1 Env pseudovirus AC10.0, clone 29. The note with it: AC10.0, clone 29, subtype B, NIH # 11024; previously published ref 18; cited from earlier work.
Assay [3] has as its system HIV-1 Env pseudovirus QH0692, clone 42. The note with it: QH0692, clone 42, subtype B, NIH # 11018; previously published ref 18; cited from earlier work.
Assay [4] concerns HIV-1 Env pseudovirus SC422661.8. The settings on record: SC422661.8, subtype B, NIH # 11058; previously published ref 18; cited from earlier work.
Assay [5] has as its system panel of 51 Env-pseudotyped viruses. Kind of assay: microbe, parasite or virus in culture. The settings on record: Human immunodeficiency virus 1, read-out: IC50 range over the pseudovirus panel. It is filed as cell-based.
In assay [6] the test system is HIV-1 Env pseudovirus CRF02_AG clone 278. The note with it: CRF02_AG clone 278, subtype A/G, NIH # 11605; previously published ref 18; cited from earlier work.
Assay [7] deals with HIV-1 Env pseudovirus CAP210.2.00.E8. The note with it: CAP210.2.00.E8, subtype C, NIH # 11317; previously published ref 18; cited from earlier work.
The subject of assay [8] is HIV-1 Env pseudovirus BG505-T332N. The note with it: subtype A, previously published ref 18; cited from earlier work.
Assay [9] concerns HIV-1 Env pseudovirus BF535.W6M.ENV.A1. The note with it: BF535.W6M.ENV.A1, subtype D/A, NIH # 11517 (infant); previously published ref 18; cited from earlier work.
Assay [10] has as its system HIV-1 Env pseudovirus QG393.60M.ENV.B8. The settings on record: QG393.60M.ENV.B8, subtype A2/D, NIH # 11907; previously published ref 18; cited from earlier work.
In assay [11] the test system is HIV-1 Env pseudovirus QG393.60M.ENV.B7. The settings on record: QG393.60M.ENV.B7, subtype A2/D, NIH # 11906; previously published ref 18; cited from earlier work.
For assay [12], the system named is HIV-1 Env pseudovirus CRF02_AG clone 266. The note with it: CRF02_AG clone 266, subtype A/G, NIH # 11602; previously published ref 18; cited from earlier work.
Assay [13] has as its system HIV-1 Env pseudovirus QG393.60M.ENV.A1. The note with it: QG393.60M.ENV.A1, subtype A2/D, NIH # 11905; previously published ref 18; cited from earlier work.
In assay [14] the test system is HIV-1 Env pseudovirus ZM135M.PL10a. The settings on record: subtype C, NIH # 11315, previously published ref 18; cited from earlier work.
For assay [15], the system named is HIV-1 Env pseudovirus pTHRO4156 clone 18. The settings on record: pTHRO4156 clone 18, subtype B, NIH # 11037; previously published ref 18; cited from earlier work.
The subject of assay [16] is HIV-1 Env pseudovirus ZM214M.PL15. The settings on record: ZM214M.PL15, subtype C, NIH # 11310; previously published ref 18; cited from earlier work.
Assay [17] relates to HIV-1 Env pseudovirus QF495.23M.ENV.B2. The note with it: QF495.23M.ENV.B2, subtype A, NIH # 11892; previously published ref 18; cited from earlier work.
The test system of assay [18] is HIV-1 Env pseudovirus QD435.100M.ENV.E1. The settings on record: QD435.100M.ENV.E1, subtype D, NIH # 11918; previously published ref 18; cited from earlier work.
Assay [19] has as its system HIV-1 Env pseudovirus QF495.23M.ENV.A1. The settings on record: QF495.23M.ENV.A1, subtype A, NIH # 11890; previously published ref 18; cited from earlier work.
Assay [20] has as its system HIV-1 Env pseudovirus pCAAN5342 clone A2. The note with it: pCAAN5342 clone A2, subtype B, NIH # 11038; previously published ref 18; cited from earlier work.
The test system of assay [21] is HIV-1 Env pseudovirus QB726.70M.ENV.C4. The note with it: QB726.70M.ENV.C4, subtype A, NIH # 11888; previously published ref 18; cited from earlier work.
In assay [22] the test system is HIV-1 Env pseudovirus p1058_11.B11.1550. The note with it: p1058_11.B11.1550, subtype B, NIH # 11563, R5X4-tropic; previously published ref 18; cited from earlier work.
Assay [23] relates to HIV-1 Env pseudovirus QB099.391M.ENV.C8. The note with it: QB099.391M.ENV.C8, subtype C, NIH # 11909; previously published ref 18; cited from earlier work.

On to `CC1(C)CC(NC(=O)C(=O)Nc2ccc(Cl)cc2)CC(C)(C)N1` [NBD-556], for which, in assay [1], the “inhibition of cell-to-cell HIV-1 transmission” value is on record as “failed to do so”.

A word on the IC50: it is the midpoint of a concentration-inhibition curve. With `Cc1nc([C@H](NC(=O)c2ccc(-c3ccc(Cl)cc3)[nH]2)[C@@H]2CCCCN2)sc1CO` [NBD-11021A2], the IC50 in assay [2] is 320 ± 10 nM; in [3], 520 ± 100 nM; in [4], 330 ± 10 nM; in assay [5], 320 to 4400 nM; in assay [6], 1300 ± 500 nM; in assay [7], 2800 ± 700 nM. Further, the IC50 in assay [8] was 1000 ± 100 nM; in assay [9], 2800 ± 600 nM; in assay [10], 480 ± 200 nM; in [11] it was 800 ± 300 nM; in [12] it was 1000 ± 200 nM; in [13] it was 410 ± 200 nM. For the same molecule, the IC50 is 2700 ± 1200 nM in assay [14]; 1000 ± 200 nM in [15]; 2700 ± 200 nM in assay [16]; 600 ± 400 nM in assay [17]; 3700 ± 100 nM in [18]; 1300 ± 400 nM in assay [19]. For the same molecule, the IC50 in assay [20] is 600 ± 70 nM; in [21], 1300 ± 300 nM; in assay [22], 1100 ± 800 nM; in assay [23], 1800 ± 500 nM.
